Laboratory results: patent US10294202B2, “Pyrrolidinones as herbicides” (FMC Corporation, priority 2013, dated 2019)

Columns and labels:
lambsquarters = experiment: Test D pre-/postemergence herbicide test; format: in vivo, Chenopodium album; details: Preemergence; for Plant response rating, Lambsquarters: scale 0 to 100 (0 no effect, 100 complete control); for Plant response rating: 250 g ai/ha, Lambsquarters, scale 0 to 100
Procedure, shortened: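 Visual injury score, 0 (no effect) to 100 (complete control), taken 7–21 d post-treatment against untreated controls. Application was preemergence in silt loam and postemergence at 1- to 4-leaf stage, using a surfactant-containing non-phytotoxic solvent formulation.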

nutsedge, yellow = experiment: Test E preemergence herbicide test; format: in vivo, Cyperus esculentus; set-up: key: 0 = no effect, 100 = complete control
Source text: Seeds of plant species selected from corn (Zea mays), soybean (Glycine max), velvetleaf (Abutilon theophrasti), lambsquarters (Chenopodium album), wild poinsettia (Euphorbia heterophylla), pigweed, palmer (palmer pigweed, Amaranthus palmeri), waterhemp (common waterhemp, Amaranthus rudis), surinam grass (Brachiaria decumbens), crabgrass, large (large crabgrass, Digitaria sanguinalis), crabgrass, Brazil (Brazilian crabgrass, Digitaria horizontalis), panicum, fall (fall panicum, Panicum dichotomiflorum), foxtail, giant (giant foxtail, Setaria faberii), foxtail, green (green foxtail, Setaria viridis), goosegrass (Eleusine indica), johnsongrass (Sorghum halepense), ragweed (common ragweed, Ambrosia elatior), barnyardgrass (Echinochloa crus-galli), sandbur (southern sandbur, Cenchrus echinatus), arrowleaf […] rhombifolia), ryegrass, Italian (Italian ryegrass, Lolium multiflorum), dayflower, VA (Virginia dayflower, Commelina virginica), field bindweed (Convolvulus arvensis), morningglory (Ipomoea coccinea), nightshade (eastern black nightshade, Solanum ptycanthum), kochia (Kochia scoparia), nutsedge, yellow (yellow nutsedge, Cyperus esculentus), cocklebur (common cocklebur, Xanthium strumarium), smartweed (ladysthumb smartweed, Polygonum Persicaria) and beggarticks (hairy beggarticks, Bidens pilosa), were planted into a silt loam soil and treated preemergence with test chemicals formulated in a non-phytotoxic solvent mixture which included a surfactant. Treated plants and controls were maintained in a greenhouse for 21 days, after which time all species were compared to controls and visually evaluated. Plant response ratings, summarized in Table E, are based on a scale of 0 to 100 where 0 is no effect and 100 is complete control. A dash (-) response means no test result.

deadnettle = experiment: Test D pre-/postemergence herbicide test; format: in vivo, Lamium amplexicaule; details: Preemergence; for Plant response rating, Deadnettle: scale 0 to 100 (0 no effect, 100 complete control); for Plant response rating: 250 g ai/ha, Deadnettle, scale 0 to 100
Source text: Seeds of plant species selected from bluegrass (annual bluegrass, Poa annua), blackgrass (Alopecurus myosuroides), canarygrass (littleseed canarygrass, Phalaris minor), chickweed (common chickweed, Stellaria media), galium (catchweed bedstraw, Galium aparine), bromegrass, downy (downy bromegrass, Bromus tectorum), field poppy (Papaver rhoeas), field violet (Viola arvensis), foxtail, green (green foxtail, Setaria viridis), deadnettle (henbit deadnettle, Lamium amplexicaule), ryegrass, Italian (Italian ryegrass, Lolium multiflorum), kochia (Kochia scoparia), lambsquarters (Chenopodium album), oilseed rape (Brassica napus), pigweed (Amaranthus retroflexus), chamomile (scentless chamomile, Matricaria inodora), Russian thistle (Salsola kali), speedwell (bird's-eye speedwell, Veronica persica), barley, spring (spring barley, Hordeum vulgare), wheat, spring (spring wheat, Triticum aestivum), buckwheat, wild (wild buckwheat, Polygonum convolvulus), mustard, wild (wild mustard, Sinapis arvensis), oat, wild (wild oat, Avena fatua), radish, wild (wild radish, Raphanus raphanistrum), […]), barley, winter (winter barley, Hordeum vulgare), and wheat, winter (winter wheat, Triticum aestivum) were planted into a silt loam soil and treated preemergence with test chemicals formulated in a non-phytotoxic solvent mixture which included a surfactant. At the same time, these species were planted in pots containing Redi-Earth® planting medium (Scotts Company, 14111 Scottslawn Road, Marysville, Ohio 43041) comprising spaghnum peat moss, vermiculite, wetting agent and starter nutrients and treated with postemergence applications of the test chemicals formulated in the same manner. Plants ranged in height from 2 to 18 cm (1- to 4-leaf stage). Treated plants and controls were maintained in a controlled growth environment for 7 to 21 days after which time all species were compared to controls and visually evaluated. Plant response ratings, summarized in Table D, are based on a scale of 0 to 100 where 0 is no effect and 100 is complete control. A dash (-) response means no test result.

arrowleaf sida = experiment: Test E preemergence herbicide test; format: in vivo, Sida rhombifolia; set-up: key: 0 = no effect, 100 = complete control
Procedure, shortened: (§1)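 Seeds were sown in silt loam soil and treated preemergence with test chemicals in a non-phytotoxic solvent mixture containing a surfactant. Plants were kept in a greenhouse for 21 days, then visually rated against untreated controls on a 0–100 scale (0 = no effect, 100 = complete control).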

corn = experiment: Test E preemergence herbicide test; format: in vivo, Zea mays; set-up: key: 0 = no effect, 100 = complete control
Procedure, shortened: as §1

sprangletop, Brdd. = experiment: Test F flood (paddy) test; format: in vivo, Leptochloa fascicularis; details: 21 d, scale 0-100
Procedure, shortened: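 In this paddy assay, 2.0–2.5-leaf plants grown in sterilized Tama silt loam (2.6% organic matter) at 30/27 °C with 16-h photoperiod receive compound via the 3-cm flood water. Control is rated visually at 21 d from 0 (none) to 100 (complete), versus untreated pots.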

Row | SMILES | Plant response rating, Lambsquarters (lambsquarters; 62 g ai/ha) | Plant response rating, Lambsquarters (lambsquarters; 125 g ai/ha) | Plant response rating, Lambsquarters (lambsquarters; 31 g ai/ha) | Plant response rating (lambsquarters) | Plant response rating, Nutsedge, Yellow (nutsedge, yellow; 31 g ai/ha) | Plant response rating, Nutsedge, Yellow (nutsedge, yellow; 62 g ai/ha) | Plant response rating, Nutsedge, Yellow (nutsedge, yellow; 125 g ai/ha) | Plant response rating, Nutsedge, Yellow (nutsedge, yellow; 250 g ai/ha) | Plant response rating, Deadnettle (deadnettle; 62 g ai/ha) | Plant response rating, Deadnettle (deadnettle; 125 g ai/ha) | Plant response rating, Deadnettle (deadnettle; 31 g ai/ha) | Plant response rating (deadnettle) | Plant response rating, Arrowleaf Sida (arrowleaf sida; 31 g ai/ha) | Plant response rating, Arrowleaf Sida (arrowleaf sida; 62 g ai/ha) | Plant response rating, Arrowleaf Sida (arrowleaf sida; 125 g ai/ha) | Plant response rating, Arrowleaf Sida (arrowleaf sida; 250 g ai/ha) | Plant response rating, Corn (corn; 31 g ai/ha) | Plant response rating, Sprangletop, Brdd. (sprangletop, Brdd.; 125 g ai/ha) | Plant response rating, Sprangletop, Brdd. (sprangletop, Brdd.; 250 g ai/ha) | Plant response rating, Sprangletop, Brdd. (sprangletop, Brdd.; 500 g ai/ha) | also measured
1 | O=C1NC[C@H](c2cccc(C(F)(F)F)c2)[C@H]1C(=O)Nc1cccc(F)c1F [Compound 206] | 80 | 85 | 50 | 90 | 15 | 15 | 20 | 75 | 35 | 40 | 20 | 75 | 0 | 0 | 10 | 50 | 0 | 95 | 100 | 100 | Plant response rating, Corn (corn; 62 g ai/ha): 50; Plant response rating, Corn (corn; 125 g ai/ha): 40; Plant response rating, Corn (corn; 250 g ai/ha): 70; Plant response rating, Sprangletop, Brdd. (sprangletop, Brdd.; 64 g ai/ha): 90
2 | O=C1NCC(c2ccc(F)c(F)c2)C1C(=O)Nc1cccc(F)c1F (racemic) [Compound 101] |  |  |  |  |  |  |  |  |  |  |  |  |  |  |  |  |  | 85 | 95 | 95 | Plant response rating, Sprangletop, Brdd. (sprangletop, Brdd.; 64 g ai/ha): 75
3 | O=C1NC[C@H](c2cccc(C(F)(F)F)c2)[C@H]1C(=O)Nc1ccccc1F [Compound 204, (3R,4S)—N-(2-fluorophenyl)-2-oxo-4-[3-(trifluoromethyl)phenyl]-3-pyrrolidinecarboxamide] | 30 | 65 | 35 | 90 | 0 | 0 | 0 | 0 | 25 | 25 | 25 | 35 | 0 | 0 | 0 | 0 | 0 | 98 | 100 | 100 | Plant response rating, Corn (corn; 62 g ai/ha): 0; Plant response rating, Corn (corn; 125 g ai/ha): 0; Plant response rating, Corn (corn; 250 g ai/ha): 40
4 | O=C1NCCC1C(=O)N(c1ccc(F)c(F)c1)c1ccccc1F (centres unmarked) [Compound 5, N-(3,4-difluorophenyl)-N-(2-fluorophenyl)-2-oxo-3-pyrrolidinecarboxamide] |  |  |  |  |  |  |  |  |  |  |  |  |  |  |  |  |  | 85 | 85 | 85 | Plant response rating, Sprangletop, Brdd. (sprangletop, Brdd.; 1000 g ai/ha): 85; Plant response rating, Sprangletop, Brdd. (sprangletop, Brdd.; 2000 g ai/ha): 90
